In data set [1] the target is T1, hCB2 (Homo sapiens, UniProt P34972). In words: Antagonism of CB2 receptors expressed in CHO cells, cAMP assay against CP 55,940 (Protocol IX.1). The format is cell-based. Details: expressed in transfected cells; host or cells: CHO (h-CB2/CHO, G418-selected). As to conditions: h-CB2/CHO cells, vs 10 nM CP 55,940; for inhibition at 10 µM: CHO. Here is the method:
(§1) IX. Assay for Determining Agonist and Antagonist Activity to CB1 and CB2 Receptors
(§2) 1. Antagonism of CB1/CB2 Receptors Expressed in CHO Cells.
h-CB1/CHO or h-CB2/CHO cells were grown in HAM's F12 DMEM medium (Sigma) with 10% FBS (Hyclone), 1% penicillin-streptomycin solution and 400 μg/ml of G418 (Sigma). 5000 cells were seeded per well in a 96 well plate and incubated for 24 hours at 37° C. in 5% CO2. On the day of assay, cells were washed with warm Krebs buffer containing 0.1% fatty acid free (FAF) BSA (Sigma) and re-suspended in the same buffer containing 1 mM IBMX. Test antagonist or reference compound (AM 251 (1-(2,4-dichlorophenyl)-5-(4-iodophenyl)-4-methyl-N-(1-piperidyl)pyrazole-3-carboxamide) for CB1 and SR144528 for CB2) diluted in FAFBSA+IBMX+Krebs buffer was added to the cells and incubated for 10 minutes at room temperature. CP 55,940 (30 nM final concentration for CB1 testing and 10 nM of the same for CB2 testing) was added to cells followed by forskolin (10 μM final concentration) and incubated for 30 minutes at room temperature. At the end of incubation, cells were lysed using lysis reagent from the cAMP estimation kit and cAMP was quantitated by the chemiluminescence method described in the manufacturer's instructions (DiscoveRX). EC50 values were calculated from dose response curves by nonlinear regression analysis using PRISM software.

Data set [2] concerns the target T2, hCB1 (Homo sapiens, UniProt P21554). In words: Antagonism of CB1 receptors expressed in CHO cells, cAMP assay against CP 55,940 (Protocol IX.1). The format is cell-based. Details: expressed in transfected cells; host or cells: CHO (h-CB1/CHO, G418-selected). As to conditions: at 10 uM, h-CB1/CHO cells, cAMP, vs 30 nM CP 55,940; for inhibition at 10 µM: read-out: hCB1 Antagonism. Here is the method:
as §1, §2
(§3) h-CB1/CHO or h-CB2/CHO cells were grown in HAM's F12 DMEM medium (Sigma) with 10% FBS (Hyclone), 1% penicillin-streptomycin solution and 400 μg/ml of G418 (Sigma). 5000 cells were seeded per well in a 96 well plate and incubated for 24 hours at 37° C. in 5% CO2. On the day of assay, cells were washed with warm Krebs buffer containing 0.1% fatty acid free (FAF) BSA (Sigma) and re-suspended in the same buffer containing 1 mM IBMX. […] At the end of incubation, cells were lysed using lysis reagent from the cAMP estimation kit and cAMP was quantitated by the chemiluminescence method described in the manufacturer's instructions (DiscoveRX). EC50 values were calculated from dose response curves by nonlinear regression analysis using PRISM software.
(cAMP levels reflect the balance of adenylyl cyclase and phosphodiesterase activity.)

Data set [3] concerns the target T1, hCB2. Put plainly: Agonism of CB2 receptors expressed in CHO cells, forskolin cAMP assay (Protocol IX.2). It counts as cell-based. Details: expressed in transfected cells; host or cells: CHO (h-CB2/CHO, G418-selected). As to conditions: for IC50: cAMP. The method, then: as §1
(§4) 2. Agonism of CB1/CB2 Receptors Expressed in CHO Cells
h-CB1/CHO or h-CB2/CHO cells were grown in HAM's F12 DMEM medium (Sigma) with 10% FBS (Hyclone), 1% penicillin-streptomycin solution and 400 μg/ml of G418 (Sigma). 5000 cells were seeded per well in a 96 well plate and incubated for 24 hours at 37° C. in 5% CO2. On the day of assay, cells were washed with warm Krebs Buffer containing 0.1% fatty acid free (FAF) BSA (Sigma) and re-suspended in the same buffer containing 1 mM IBMX. Test compound or CP 55,940 as a reference compound (30 nM final concentration for CB1 testing and 10 μM of the same for CB2 testing) diluted in FFB+IBMX+Krebs buffer was added to the cells followed by forskolin addition (10 uM final concentration) and incubated for 30 minutes at room temperature. At the end of incubation, cells were lysed using lysis reagent from the cAMP estimation kit and cAMP was quantitated by chemiluminescence method described in the manufacturer's instructions (DiscoveRX). EC50 values were calculated from dose response curves by nonlinear regression analysis using PRISM software.

Data set [4] concerns the target T2, hCB1. In words: Agonism of CB1 receptors expressed in CHO cells, forskolin cAMP assay (Protocol IX.2). The format is cell-based. Further details: expressed in transfected cells; host or cells: CHO (h-CB1/CHO, G418-selected). As to conditions: at 10 uM, h-CB1/CHO cells, cAMP; for activation at 10 µM: CHO. The method, then: as §1, §4
as §3, with “Krebs Buffer” for “Krebs buffer”, “by” for “by the”

Data set [5] concerns the target T1, hCB2. Put plainly: In vitro binding assay using hCB2-CHO membranes, [3H]-CP-55,940 displacement (Protocol IV). Further details: expressed in transfected cells; host or cells: CHO (hCB2-CHO, generated in-house). The following applies: 1 h, read-out: % Displacement Protocol IV. In outline: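 Compounds were tested at a single 300 nM final concentration for displacing 0.75 nM [3H]-CP-55,940 from hCB2-CHO membranes (1 h, 30 °C, 50 mM Tris pH 7.4, 5 mM MgCl2, 1 mM EDTA, 0.1% BSA). Filter-bound radioactivity was counted, with 0.5 μM unlabelled CP-55,940 for nonspecific binding; results are % displacement.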

Data set [6] deals with T3, CB1 (Rattus norvegicus, UniProt P20272). In words: Rat CB1 receptor binding using brain membrane, [3H]SR141716A displacement (Protocol I). The following applies: 1 h; rat brain membrane, [3H]SR141716A displacement; read-out: % Displacement Protocol I. Details: CB1 receptor present in a rat brain membrane preparation; from tissue; host or cells: rat brain membrane; inhibition: dose or concentration left out as unconfirmed.
T3 sequence (P20272 whole entry): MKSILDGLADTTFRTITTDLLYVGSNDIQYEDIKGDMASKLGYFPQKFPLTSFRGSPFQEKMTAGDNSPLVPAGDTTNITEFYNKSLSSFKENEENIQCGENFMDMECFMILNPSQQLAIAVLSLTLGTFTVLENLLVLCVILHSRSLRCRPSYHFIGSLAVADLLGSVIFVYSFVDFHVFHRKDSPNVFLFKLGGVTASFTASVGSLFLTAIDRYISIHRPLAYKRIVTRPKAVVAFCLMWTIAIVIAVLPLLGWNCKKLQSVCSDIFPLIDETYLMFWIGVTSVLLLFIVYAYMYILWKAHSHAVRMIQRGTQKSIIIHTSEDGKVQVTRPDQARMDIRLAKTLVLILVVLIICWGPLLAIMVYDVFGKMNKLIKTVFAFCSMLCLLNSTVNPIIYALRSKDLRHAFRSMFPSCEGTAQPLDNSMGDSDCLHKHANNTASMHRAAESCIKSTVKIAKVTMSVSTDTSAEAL

Data set [7] has as its target T3, CB1. Put plainly: GTPγS binding assay, CB1 functional assay in rat cerebellar membrane (Protocol VIII). It counts as biochemical. Further details: 10 μg rat cerebellum membrane; from tissue; host or cells: rat cerebellum membrane, prepared in-house. In outline: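 Rat cerebellar membranes (10 μg) incubated 1 h at 30 °C with 0.2 nM [35S]GTPγS, 50 μM GDP, and compound at 1 μM or 300 nM, alone or with 1 μM WIN 55,212-2, in Tris/MgCl2/EGTA/NaCl pH 7.4. Filter-bound radioactivity counted; percent stimulation calculated against basal specific binding (nonspecific defined by 10 μM GTPγS).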

The mark [8] stands for this setting: h-CB2/CHO cells, read-out: hCB2 Agonism IC50.
Setting [9] is: hCB2-CHO membranes, [3H]-CP-55,940 displacement.
Where [10] appears, read: hCB2 Agonism IC50, h-CB2/CHO cells.

Like-named read-outs stand apart in the source and are kept apart here.

T1 sequence (P34972 whole entry): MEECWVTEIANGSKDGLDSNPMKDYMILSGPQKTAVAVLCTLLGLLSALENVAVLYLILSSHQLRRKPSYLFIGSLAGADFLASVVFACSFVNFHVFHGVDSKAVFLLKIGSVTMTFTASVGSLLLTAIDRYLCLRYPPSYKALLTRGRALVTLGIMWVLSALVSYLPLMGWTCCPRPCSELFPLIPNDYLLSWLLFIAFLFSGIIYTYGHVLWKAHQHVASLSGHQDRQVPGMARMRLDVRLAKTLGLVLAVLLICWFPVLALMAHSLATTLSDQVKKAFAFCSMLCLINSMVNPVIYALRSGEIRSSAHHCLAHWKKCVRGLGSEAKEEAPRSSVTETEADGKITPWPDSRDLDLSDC
T2 sequence (P21554 whole entry): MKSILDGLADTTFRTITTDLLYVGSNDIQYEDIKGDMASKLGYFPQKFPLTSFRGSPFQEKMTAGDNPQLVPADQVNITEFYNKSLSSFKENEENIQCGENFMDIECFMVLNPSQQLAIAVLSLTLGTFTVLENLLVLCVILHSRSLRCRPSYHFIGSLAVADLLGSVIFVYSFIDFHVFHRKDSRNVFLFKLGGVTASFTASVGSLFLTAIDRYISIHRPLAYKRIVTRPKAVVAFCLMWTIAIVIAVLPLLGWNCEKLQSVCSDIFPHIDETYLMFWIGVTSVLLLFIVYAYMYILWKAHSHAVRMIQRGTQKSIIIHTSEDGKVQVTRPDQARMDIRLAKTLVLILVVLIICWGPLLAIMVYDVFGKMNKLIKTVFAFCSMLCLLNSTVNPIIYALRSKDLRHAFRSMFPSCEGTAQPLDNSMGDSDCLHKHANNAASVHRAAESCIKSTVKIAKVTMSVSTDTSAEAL

Broadly, the IC50 is the concentration needed to halve the response being measured. For `CC(C)(C)NC(=O)c1nn(-c2ccc(F)cc2F)c2c1[C@@H]1CC[C@H]2C1` (single isomer, unassigned) [Example 305], the “hCB2 Antagonism” value on hCB2 [1] (at 10 uM) stood at 37.45% at. In addition, the “hCB1 Antagonism” value at hCB1 [2] was 0% at 10 uM. In addition, the IC50 on hCB2 [3] (setting [8]) stood at 2.16 nM. The “hCB1 Agonism” value at hCB1 [4] is on record as 20% at.
For the compound `CC(C)(C)NC(=O)c1nn(-c2ccc(F)cc2F)c2c1[C@@H]1CC[C@H]2C1` (single isomer, unassigned) [Example 304], the results for the inhibition at 10 µM on hCB2 [1] and at hCB1 [2] were 51.6% and 0%, respectively. Also, the IC50 at hCB2 [3] (setting [8]) is 0.93 nM. The “hCB1 Agonism” value on hCB1 [4] was 55% at.
`O=C(N[C@@H](CO)c1ccccc1)c1nn(-c2ccc(F)cc2F)c2c1C1CCC2C1` (stereo partly drawn) [Example 320, N(3)-[(1R)-2-Hydroxy-1-phenylethyl]-1-(2,4-difluorophenyl)-4,5,6,7-tetrahydro-1H-4,7-methano-indazole-3-carboxamide]: the inhibition at 0.3 µM on hCB2 [5] was determined as 67.8%. Also, the inhibition at 10 µM against hCB2 [1] was determined as 22.5%; at hCB1 [2] it was 0%. Further, the half-maximal inhibitory concentration (IC50) on hCB2 [3] (setting [8]) lay in the range of 0.76 to 1.25 nM. The activation at 10 µM on hCB1 [4] is 29.1%.
Usually melting point stands for the temperature, or range, at which the solid turns liquid. `O=C(NCc1ccc(Cl)cc1Cl)c1nn(-c2ccc(Cl)cc2)c2c1C1CCC2C1` (stereo not drawn) [Example 223, N(3)-(2,4-Dichlorobenzyl)-1-(4-chlorophenyl)-4,5,6,7-tetrahydro-1H-4,7-methano-indazole-3-carboxamide] came in with a melting point of 108 to 111 °C. Moreover, the inhibition at 0.3 µM on hCB2 [5] (setting [9]) is 59.5%. For the same compound, the inhibition at 10 µM on hCB2 [1] was found to be 24.4%. Besides, the inhibition at 10 µM at hCB1 [2] worked out at 0%. At hCB2 [3] (setting [10]), this compound displayed a half-maximal inhibitory concentration (IC50) of 1.49 nM. The inhibition on CB1 [6] amounted to 52.1%.
Compound `O=C(NNc1ncccc1Cl)c1nn(-c2ccc(Cl)cc2)c2c1C1CC3CC(C1)CC2C3` [Example 134, N(7)-(3-Chloro-2-pyridylamino)-5-(4-chlorophenyl)-5,6-diazatetracyclo[7.3.1.1^3,11.0^4,8]tetradeca-4(8),6-diene-7-carboxamide] returned a melting point of 200 to 203 °C. For the same compound, the activation at 0.3 µM at CB1 [7] (1 h, GTPγS binding over basal, rat cerebellar membrane, tested at 300 nM, read-out: Per Se % Stimulation) was -6%. The inhibition at 0.3 µM at CB1 [7] (GTPγS binding, tested at 300 nM in presence of 1 μM WIN 55,212-2, read-out: % Inhibition of WIN-55212-2 induced stimulation) came out at 58.1%. The inhibition at 10 µM at hCB1 [2] worked out at 17.5%. Also, the inhibition on CB1 [6] turned out to be 89.6%. The activation at 10 µM on hCB1 [4] was determined as 75.6%.
With `O=C(NNc1cccc(F)c1)c1nn(-c2ccc(Cl)cc2Cl)c2c1C1CCC2C1` (stereo not drawn) [Example 266, N(3)-[(3-Fluorophenyl)amino]-1-(2,4-dichlorophenyl)-4,5,6,7-tetrahydro-1H-4,7-methano-indazole-3-carboxamide], the melting point stood at 190 °C. At hCB2 [5] (setting [9]), the inhibition at 0.3 µM worked out at 62%. The compound further yielded an inhibition at 10 µM against hCB2 [1] of 27.7%. This compound gave a 50% inhibitory concentration (IC50) on hCB2 [3] (setting [10]) of 14 nM. Further, on CB1 [6], the inhibition turned out to be 34.5%. Besides, the activation at 10 µM at hCB1 [4] is 12.1%.
As to `O=C(NC1CCCCC1)c1nn(-c2ccccc2)c2c1C1CCC2C1` (stereo not drawn) [Example 202, N(3)-Cyclohexyl-1-phenyl-4,5,6,7-tetrahydro-1H-4,7-methano-indazole-3-carboxamide], the melting point was 107 °C. Besides, the inhibition at 0.3 µM at hCB2 [5] (setting [9]) turned out to be 70.1%. In addition, on hCB1 [2], the inhibition at 10 µM stood at 0%. In addition, on hCB2 [3] (bare number, no unit or concentration given), the “hCB2 Agonism” value came to 16.79. Further, the inhibition at CB1 [6] came to 28.2%. Also, the activation at 10 µM at hCB1 [4] came out at 0%.
`O=C(NNc1ccc(Cl)cc1Cl)c1nn(-c2ccc(F)cc2F)c2c1C1CC3CC(C1)CC2C3` [Example 150, N(7)-(2,4-Dichlorophenylamino)-5-(2,4-difluorophenyl)-5,6-diazatetracyclo[7.3.1.1^3,11.0^4,8]tetradeca-4(8),6-diene-7-carboxamide] returned a melting point of 162 °C. For the same compound, the inhibition at 10 µM on hCB1 [2] was found to be 42.9%. Moreover, the activation at 10 µM on hCB1 [4] was found to be 61.1%.
Compound `O=C(NCc1ccccc1Cl)c1nn(-c2ccc(F)cc2F)c2c1C1CC3CC(C1)CC2C3` [Example 149, N(7)-(2-Chlorobenzyl)-5-(2,4-difluorophenyl)-5,6-diazatetracyclo[7.3.1.1^3,11.0^4,8]tetradeca-4(8),6-diene-7-carboxamide] returned a melting point of 136 °C. In addition, the inhibition at 10 µM at hCB1 [2] stood at 16%. Further, the activation at 10 µM at hCB1 [4] stood at 79.9%.
Take `O=C(NC(CO)c1ccccc1)c1nn(-c2ccc(F)cc2F)c2c1C1CCC2C1` [Example 302, N5-[(1S)-2-Hydro-1-phenylethyl]-3-(2,4-difluorophenyl)-3,4-diazatricyclo[5.2.1.0.^2,6]deca-2(6),4-diene-5-carboxamide]: the melting point stood at 91 °C. The inhibition at 0.3 µM at hCB2 [5] was 71.8%. On hCB2 [1], this compound returned an inhibition at 10 µM of 0%. The IC50 on hCB2 [3] (setting [8]) turned out to be 9.75 nM. In addition, on hCB1 [4], the activation at 10 µM worked out at 19%.

For the origin of these results see patent US7923465B2, “Cannabinoid receptor ligands, pharmaceutical compositions containing them, and process for their preparation” (priority 2005, dated 2011).
